The record followed here is patent publication US12378224B2 (Dong-A Socio Holdings Co., Ltd., priority 2016, dated 2025).

The target of the test is human MER (528-end) (Homo sapiens (Human), UniProt Q12866). In words: HTRF Kinase Activity Biochemical Assay (KinEASE-TK). Conditions: 10 uM ATP. The procedure, abridged:
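Recombinant human MER (528-end) phosphorylated biotin-TK peptide substrate, 1 h at room temperature. Reaction stopped with detection buffer containing 0.375 nM Eu3+-cryptate anti-TK antibody and 0.062 uM streptavidin-XL665, 1 h further. Activity taken as HTRF ratio 665/620 nm ×10,000, 340 nm excitation.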

Bounds are passed on as bounds.

Chain of human MER (528-end) (Q12866 528-999 limits assumed): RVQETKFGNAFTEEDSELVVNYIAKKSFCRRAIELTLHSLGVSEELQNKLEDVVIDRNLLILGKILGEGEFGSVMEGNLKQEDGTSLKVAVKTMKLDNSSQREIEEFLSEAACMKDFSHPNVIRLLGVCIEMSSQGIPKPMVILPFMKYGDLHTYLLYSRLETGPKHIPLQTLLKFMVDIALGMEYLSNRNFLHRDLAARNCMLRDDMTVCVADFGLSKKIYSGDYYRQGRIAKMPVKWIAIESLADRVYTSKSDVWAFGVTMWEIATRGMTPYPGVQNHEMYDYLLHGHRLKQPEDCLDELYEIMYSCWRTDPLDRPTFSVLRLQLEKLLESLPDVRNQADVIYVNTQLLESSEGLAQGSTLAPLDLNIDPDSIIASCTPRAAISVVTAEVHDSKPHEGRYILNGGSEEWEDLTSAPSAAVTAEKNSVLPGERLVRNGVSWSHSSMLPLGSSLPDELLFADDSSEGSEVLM

As for `COc1ccccc1-c1ccc(C(=O)N2CC[C@@H](NC(=O)c3cc(-c4cnn(C)c4)cnc3N)C2)cc1` [Example 354, (R)-2-amino-N-(1-(2′-methoxy-[1,1′-biphenyl]-4-carbonyl)pyrrolidin-3-yl)-5-(1-methyl-1H-pyrazol-4-yl)nicotinamide], the IC50 lay within 10 to 100 nM.

For the molecule `Cn1cc(-c2cnc(N)c(C(=O)N[C@@H]3CCN(C(=O)c4ccc(-c5ccc(F)nc5)cc4)C3)c2)cn1` [Example 357, (R)-2-amino-N-(1-(4-(6-fluoropyridin-3-yl)benzoyl)pyrrolidin-3-yl)-5-(1-methyl-1H-pyrazol-4-yl)nicotinamide], the IC50 was greater than 1000 nM.

As for `Cn1cc(-c2cnc(N)c(C(=O)N[C@@H]3CCN(C(=O)c4ccc(-c5ccsc5)cc4)C3)c2)cn1` [Example 358, (R)-2-amino-5-(1-methyl-1H-pyrazol-4-yl)-N-(1-(4-(thiophen-3-yl)benzoyl)pyrrolidin-3-yl)nicotinamide], the IC50 lay in the range of 100 to 1000 nM.

In turn, `Cn1cc(-c2cnc(N)c(C(=O)N[C@@H]3CCN(C(=O)c4ccc(-c5ccccc5Cl)cc4)C3)c2)cn1` [Example 359, (R)-2-amino-N-(1-(2′-chloro-[1,1′-biphenyl]-4-carbonyl)pyrrolidin-3-yl)-5-(1-methyl-1H-pyrazol-4-yl)nicotinamide] returned an IC50 of 10 to 100 nM.

`Cn1cc(-c2cnc(N)c(C(=O)N[C@@H]3CCN(C(=O)c4ccc(-c5cccc(Cl)c5)cc4)C3)c2)cn1` [Example 360, (R)-2-amino-N-(1-(3′-chloro-[1,1′-biphenyl]-4-carbonyl)pyrrolidin-3-yl)-5-(1-methyl-1H-pyrazol-4-yl)nicotinamide]: the IC50 lay in the range of 10 to 100 nM.

Molecule `Cn1cc(-c2cnc(N)c(C(=O)N[C@@H]3CCN(C(=O)c4ccc(-c5ccc(Cl)cc5Cl)cc4)C3)c2)cn1` [Example 361, (R)-2-amino-N-(1-(2′,4′-dichloro-[1,1′-biphenyl]-4-carbonyl)pyrrolidin-3-yl)-5-(1-methyl-1H-pyrazol-4-yl)nicotinamide] came in with an IC50 of 10 to 100 nM.

Regarding `Cn1cc(-c2cnc(N)c(C(=O)N[C@@H]3CCN(C(=O)c4ccc(-c5ccc(Cl)c(Cl)c5)cc4)C3)c2)cn1` [Example 362, (R)-2-amino-N-(1-(3′,4′-dichloro-[1,1′-biphenyl]-4-carbonyl)pyrrolidin-3-yl)-5-(1-methyl-1H-pyrazol-4-yl)nicotinamide], the IC50 was in the range of 100 to 1000 nM.

`Cn1cc(-c2cnc(N)c(C(=O)N[C@@H]3CCN(C(=O)c4ccc(-c5cc(Cl)cc(Cl)c5)cc4)C3)c2)cn1` [Example 363, (R)-2-amino-N-(1-(3′,5′-dichloro-[1,1′-biphenyl]-4-carbonyl)pyrrolidin-3-yl)-5-(1-methyl-1H-pyrazol-4-yl)nicotinamide] came in with an IC50 of 100 to 1000 nM.

The molecule `Cn1cc(-c2cnc(N)c(C(=O)N[C@@H]3CCN(C(=O)c4ccc(-c5cc(Cl)ccc5Cl)cc4)C3)c2)cn1` [Example 367, (R)-2-amino-N-(1-(2′,5′-dichloro-[1,1′-biphenyl]-4-carbonyl)pyrrolidin-3-yl)-5-(1-methyl-1H-pyrazol-4-yl)nicotinamide] returned an IC50 of 10 to 100 nM.

On to `Cn1cc(-c2cnc(N)c(C(=O)N[C@@H]3CCN(C(=O)c4ccc(-c5c(Cl)cccc5Cl)cc4)C3)c2)cn1` [Example 368, (R)-2-amino-N-(1-(2′,6′-dichloro-[1,1′-biphenyl]-4-carbonyl)pyrrolidin-3-yl)-5-(1-methyl-1H-pyrazol-4-yl)nicotinamide], for which the IC50 is 100 to 1000 nM.

Take `Cn1cc(-c2cnc(N)c(C(=O)N[C@@H]3CCN(C(=O)c4ccc(-c5ccc(C(F)(F)F)cc5)cc4)C3)c2)cn1` [Example 371, (R)-2-amino-5-(1-methyl-1H-pyrazol-4-yl)-N-(1-(4′-(trifluoromethyl)-[1,1′-biphenyl]-4-carbonyl)pyrrolidin-3-yl)nicotinamide]: the IC50 was greater than 1000 nM.

`Cn1cc(-c2cnc(N)c(C(=O)N[C@@H]3CCN(C(=O)c4ccc(-c5ccc(OCc6ccccc6)cc5)cc4)C3)c2)cn1` [Example 372, (R)-2-amino-N-(1-(4′-(benzyloxy)-[1,1′-biphenyl]-4-carbonyl)pyrrolidin-3-yl)-5-(1-methyl-1H-pyrazol-4-yl)nicotinamide]: the IC50 was greater than 1000 nM.

`Cn1cc(-c2cnc(N)c(C(=O)N[C@@H]3CCN(C(=O)c4ccc(-c5ccccc5Br)cc4)C3)c2)cn1` [Example 373, (R)-2-amino-N-(1-(2′-bromo-[1,1′-biphenyl]-4-carbonyl)pyrrolidin-3-yl)-5-(1-methyl-1H-pyrazol-4-yl)nicotinamide] showed an IC50 of 10 to 100 nM.

With `Cn1cc(-c2cnc(N)c(C(=O)N[C@@H]3CCN(C(=O)c4ccc(-c5ccccc5O)cc4)C3)c2)cn1` [Example 375, (R)-2-amino-N-(1-(2′-hydroxy-[1,1′-biphenyl]-4-carbonyl)pyrrolidin-3-yl)-5-(1-methyl-1H-pyrazol-4-yl)nicotinamide], the IC50 was in the range of 100 to 1000 nM.

`Cc1c(N)cccc1-c1ccc(C(=O)N2CC[C@@H](NC(=O)c3cc(-c4cnn(C)c4)cnc3N)C2)cc1` [Example 376, (R)-2-amino-N-(1-(3′-amino-2′-methyl-[1,1′-biphenyl]-4-carbonyl)pyrrolidin-3-yl)-5-(1-methyl-1H-pyrazol-4-yl)nicotinamide]: the IC50 was in the range of 100 to 1000 nM.

With `Cn1cc(-c2cnc(N)c(C(=O)N[C@@H]3CCN(C(=O)c4ccc(-c5ccc(Cl)cc5)cc4)C3)c2)cn1` [Example 377, (R)-2-amino-N-(1-(4′-chloro-[1,1′-biphenyl]-4-carbonyl)pyrrolidin-3-yl)-5-(1-methyl-1H-pyrazol-4-yl)nicotinamide], the IC50 lay within 100 to 1000 nM.

For the molecule `Cn1cc(-c2cnc(N)c(C(=O)N[C@@H]3CCN(C(=O)c4ccc(-c5ccc(C(C)(C)C)cc5)cc4)C3)c2)cn1` [Example 378, (R)-2-amino-N-(1-(4′-(tert-butyl)-[1,1′-biphenyl]-4-carbonyl)pyrrolidin-3-yl)-5-(1-methyl-1H-pyrazol-4-yl)nicotinamide], the IC50 is greater than 1000 nM.

In turn, `Cn1cc(-c2cnc(N)c(C(=O)N[C@@H]3CCN(C(=O)c4ccc(-c5ccc(O)cc5)cc4)C3)c2)cn1` [Example 380, (R)-2-amino-N-(1-(4′-hydroxy-[1,1′-biphenyl]-4-carbonyl)pyrrolidin-3-yl)-5-(1-methyl-1H-pyrazol-4-yl)nicotinamide] yielded an IC50 of 100 to 1000 nM.

Consider `CN1CCN(c2ccc(-c3ccc(C(=O)N4CC[C@@H](NC(=O)c5cc(-c6cnn(C)c6)cnc5N)C4)cc3)cc2)CC1` [Example 383, (R)-2-amino-5-(1-methyl-1H-pyrazol-4-yl)-N-(1-(4′-(4-methylpiperazin-1-yl)-[1,1′-biphenyl]-4-carbonyl)pyrrolidin-3-yl)nicotinamide], for which the IC50 is greater than 1000 nM.

Regarding `Cn1cc(-c2cnc(N)c(C(=O)N[C@@H]3CCN(C(=O)c4ccc(-c5ccc(C(C)(C)N6CCNCC6)cc5)cc4)C3)c2)cn1` [Example 384, (R)-2-amino-5-(1-methyl-1H-pyrazol-4-yl)-N-(1-(4′-(2-(piperazin-1-yl)propan-2-yl)-[1,1′-biphenyl]-4-carbonyl)pyrrolidin-3-yl)nicotinamide], the IC50 was 10 to 100 nM.

`CN1CCN(Cc2ccc(-c3ccc(C(=O)N4CC[C@@H](NC(=O)c5cc(-c6cnn(C)c6)cnc5N)C4)cc3)cc2)CC1` [Example 385, (R)-2-amino-5-(1-methyl-1H-pyrazol-4-yl)-N-(1-(4′-((4-methylpiperazin-1-yl)methyl)-[1,1′-biphenyl]-4-carbonyl)pyrrolidin-3-yl)nicotinamide] yielded an IC50 of 10 to 100 nM.

On to `CN1CCN(C(C)(C)c2ccc(-c3ccc(C(=O)N4CC[C@@H](NC(=O)c5cc(-c6cnn(C)c6)cnc5N)C4)cc3)cc2)CC1` [Example 386, (R)-2-amino-5-(1-methyl-1H-pyrazol-4-yl)-N-(1-(4′-(2-(4-methylpiperazin-1-yl)propan-2-yl)-[1,1′-biphenyl]-4-carbonyl)pyrrolidin-3-yl)nicotinamide], for which the half-inhibitory concentration (IC50) is 100 to 1000 nM.

Regarding `Cn1cc(-c2cnc(N)c(C(=O)N[C@@H]3CCN(C(=O)c4ccc(-c5ccc(C(C)(C)N6CCN(CCO)CC6)cc5)cc4)C3)c2)cn1` [Example 387, (R)-2-amino-N-(1-(4′-(2-(4-(2-hydroxyethyl)piperazin-1-yl)propan-2-yl)-[1,1′-biphenyl]-4-carbonyl)pyrrolidin-3-yl)-5-(1-methyl-1H-pyrazol-4-yl)nicotinamide], the IC50 was in the range of 100 to 1000 nM.

As for `CN1CCN(Cc2cccc(-c3ccc(C(=O)N4CC[C@@H](NC(=O)c5cc(-c6cnn(C)c6)cnc5N)C4)cc3)c2)CC1` [Example 388, (R)-2-amino-5-(1-methyl-1H-pyrazol-4-yl)-N-(1-(3′-((4-methylpiperazin-1-yl)methyl)-[1,1′-biphenyl]-4-carbonyl)pyrrolidin-3-yl)nicotinamide], the IC50 fell in the range of 100 to 1000 nM.

Take `Cn1cc(-c2cnc(N)c(C(=O)N[C@@H]3CCN(C(=O)c4ccc(-c5cccc(CN6CCN(CCO)CC6)c5)cc4)C3)c2)cn1` [Example 389, (R)-2-amino-N-(1-(3′-((4-(2-hydroxyethyl)piperazin-1-yl)methyl)-[1,1′-biphenyl]-4-carbonyl)pyrrolidin-3-yl)-5-(1-methyl-1H-pyrazol-4-yl)nicotinamide]: the IC50 lay in the range of 100 to 1000 nM.

The molecule `CN1CCN(Cc2ccc(-c3cccc(C(=O)N4CC[C@@H](NC(=O)c5cc(-c6cnn(C)c6)cnc5N)C4)c3)cc2)CC1` [Example 390, (R)-2-amino-5-(1-methyl-1H-pyrazol-4-yl)-N-(1-(4′-((4-methylpiperazin-1-yl)methyl)-[1,1′-biphenyl]-3-carbonyl)pyrrolidin-3-yl)nicotinamide] yielded an IC50 greater than 1000 nM.

In turn, `Cn1cc(-c2cnc(N)c(C(=O)N[C@@H]3CCN(C(=O)c4ccc(-c5ccccc5Cl)cn4)C3)c2)cn1` [Example 395, (R)-2-amino-N-(1-(5-(2-chlorophenyl)picolinoyl)pyrrolidin-3-yl)-5-(1-methyl-1H-pyrazol-4-yl)nicotinamide] had an IC50 of 100 to 1000 nM.

Regarding `Cn1cc(-c2cnc(N)c(C(=O)N[C@@H]3CCN(C(=O)c4ccc(-c5ccccc5)cn4)C3)c2)cn1` [Example 396, (R)-2-amino-5-(1-methyl-1H-pyrazol-4-yl)-N-(1-(5-phenylpicolinoyl)pyrrolidin-3-yl)nicotinamide], the IC50 is greater than 1000 nM.
